Source: ChEMBL document CHEMBL1143254, “Structure-based design of novel 2-amino-6-phenyl-pyrimido[5',4':5,6]pyrimido[1,2-a]benzimidazol-5(6H)-ones as potent and orally active inhibitors of lymphocyte specific kinase (Lck): synthesis, SAR, and in vivo anti-inflammatory activity” (J Med Chem, 2008)
Values after ≈ are worked out from the molar mass of the structure shown. Values belong to the molecule of their own block, whether it stands above or below them.

Assays:
[1] = test system: Lymphocyte; assay: Inhibition of T cell activation in human peripheral blood lymphocytes by mixed lymphocyte reaction; format: functional, cell-based
[2] = molecular target: Tyrosine-protein kinase Lck (Homo sapiens, UniProt P06239)
Description: Inhibition of Lck by HTRF assay

[3] = molecular target: Proto-oncogene tyrosine-protein kinase Src (Homo sapiens, UniProt P12931); assay: Inhibition of Src by HTRF assay
[4] = molecular target: Mitogen-activated protein kinase 14 (Homo sapiens, UniProt Q16539); assay: Inhibition of p38-alpha by HTRF assay
[5] = molecular target: Vascular endothelial growth factor receptor 2 (Homo sapiens, UniProt P35968); assay: Inhibition of KDR by HTRF assay
[6] = test system: T-cell; assay: Inhibition of anti-CD3/CD28-induced IL2 production in human T cells; format: functional, cell-based
[7] = Solubility in simulated intestinal fluid at pH 6.8; format: physicochemical

Tyrosine-protein kinase Lck, sequence (P06239 whole entry): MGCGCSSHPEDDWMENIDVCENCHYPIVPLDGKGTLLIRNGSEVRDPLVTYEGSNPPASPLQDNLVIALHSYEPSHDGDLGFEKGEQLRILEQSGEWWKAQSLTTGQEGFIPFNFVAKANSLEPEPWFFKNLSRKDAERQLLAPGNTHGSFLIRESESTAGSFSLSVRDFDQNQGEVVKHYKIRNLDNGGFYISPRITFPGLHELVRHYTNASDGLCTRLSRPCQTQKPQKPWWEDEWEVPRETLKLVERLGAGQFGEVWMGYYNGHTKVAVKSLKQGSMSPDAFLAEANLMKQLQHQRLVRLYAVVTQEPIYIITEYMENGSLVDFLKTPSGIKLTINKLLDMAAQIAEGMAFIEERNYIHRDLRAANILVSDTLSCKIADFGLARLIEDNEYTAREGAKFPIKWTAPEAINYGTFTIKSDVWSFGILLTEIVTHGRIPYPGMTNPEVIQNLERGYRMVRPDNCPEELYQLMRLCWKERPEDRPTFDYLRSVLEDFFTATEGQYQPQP
Vascular endothelial growth factor receptor 2, sequence (P35968 whole entry): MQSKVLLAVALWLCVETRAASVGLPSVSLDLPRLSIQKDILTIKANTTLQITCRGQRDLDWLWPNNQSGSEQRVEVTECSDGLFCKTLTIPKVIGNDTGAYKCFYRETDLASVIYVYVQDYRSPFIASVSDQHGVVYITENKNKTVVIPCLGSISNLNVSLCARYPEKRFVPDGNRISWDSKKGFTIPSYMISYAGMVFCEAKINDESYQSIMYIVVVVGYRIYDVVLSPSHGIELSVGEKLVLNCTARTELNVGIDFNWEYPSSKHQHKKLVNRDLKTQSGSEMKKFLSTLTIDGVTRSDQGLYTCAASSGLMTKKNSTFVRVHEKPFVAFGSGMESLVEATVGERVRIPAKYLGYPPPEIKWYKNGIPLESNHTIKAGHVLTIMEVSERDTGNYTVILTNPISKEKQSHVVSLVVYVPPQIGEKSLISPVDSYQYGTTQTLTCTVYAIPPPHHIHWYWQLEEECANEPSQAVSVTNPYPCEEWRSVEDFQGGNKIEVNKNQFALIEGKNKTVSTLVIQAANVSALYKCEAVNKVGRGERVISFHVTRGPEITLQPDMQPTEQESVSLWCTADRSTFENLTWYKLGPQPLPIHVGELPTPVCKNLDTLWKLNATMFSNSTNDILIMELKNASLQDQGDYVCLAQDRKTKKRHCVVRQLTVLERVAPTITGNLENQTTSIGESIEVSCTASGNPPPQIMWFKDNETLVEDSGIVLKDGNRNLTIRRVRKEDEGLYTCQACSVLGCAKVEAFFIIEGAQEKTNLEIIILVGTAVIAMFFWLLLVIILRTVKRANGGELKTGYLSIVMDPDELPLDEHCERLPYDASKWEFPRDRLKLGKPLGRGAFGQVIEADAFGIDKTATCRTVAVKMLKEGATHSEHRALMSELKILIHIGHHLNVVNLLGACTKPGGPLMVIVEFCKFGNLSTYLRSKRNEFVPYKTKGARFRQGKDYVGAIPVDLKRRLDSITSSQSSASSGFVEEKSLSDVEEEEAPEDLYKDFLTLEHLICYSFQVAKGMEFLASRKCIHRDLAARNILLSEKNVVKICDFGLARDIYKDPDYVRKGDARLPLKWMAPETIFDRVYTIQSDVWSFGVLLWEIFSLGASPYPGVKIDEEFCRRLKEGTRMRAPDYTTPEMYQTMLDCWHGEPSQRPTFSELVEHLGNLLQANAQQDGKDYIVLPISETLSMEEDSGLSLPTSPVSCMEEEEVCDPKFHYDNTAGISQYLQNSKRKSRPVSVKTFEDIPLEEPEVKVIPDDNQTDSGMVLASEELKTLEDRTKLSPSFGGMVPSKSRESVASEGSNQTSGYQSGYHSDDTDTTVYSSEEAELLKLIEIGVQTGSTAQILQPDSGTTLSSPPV
Mitogen-activated protein kinase 14, sequence (Q16539 whole entry): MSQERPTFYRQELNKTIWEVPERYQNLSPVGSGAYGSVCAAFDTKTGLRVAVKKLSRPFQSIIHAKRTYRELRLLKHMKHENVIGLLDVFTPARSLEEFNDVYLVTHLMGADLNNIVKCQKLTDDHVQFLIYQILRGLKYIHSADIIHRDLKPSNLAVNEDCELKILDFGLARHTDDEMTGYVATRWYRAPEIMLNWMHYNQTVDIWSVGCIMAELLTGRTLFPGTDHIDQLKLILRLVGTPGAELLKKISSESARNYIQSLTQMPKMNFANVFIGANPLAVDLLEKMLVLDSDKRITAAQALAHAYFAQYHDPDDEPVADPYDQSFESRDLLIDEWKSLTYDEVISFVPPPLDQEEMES
Proto-oncogene tyrosine-protein kinase Src, sequence (P12931 2-536 limits assumed): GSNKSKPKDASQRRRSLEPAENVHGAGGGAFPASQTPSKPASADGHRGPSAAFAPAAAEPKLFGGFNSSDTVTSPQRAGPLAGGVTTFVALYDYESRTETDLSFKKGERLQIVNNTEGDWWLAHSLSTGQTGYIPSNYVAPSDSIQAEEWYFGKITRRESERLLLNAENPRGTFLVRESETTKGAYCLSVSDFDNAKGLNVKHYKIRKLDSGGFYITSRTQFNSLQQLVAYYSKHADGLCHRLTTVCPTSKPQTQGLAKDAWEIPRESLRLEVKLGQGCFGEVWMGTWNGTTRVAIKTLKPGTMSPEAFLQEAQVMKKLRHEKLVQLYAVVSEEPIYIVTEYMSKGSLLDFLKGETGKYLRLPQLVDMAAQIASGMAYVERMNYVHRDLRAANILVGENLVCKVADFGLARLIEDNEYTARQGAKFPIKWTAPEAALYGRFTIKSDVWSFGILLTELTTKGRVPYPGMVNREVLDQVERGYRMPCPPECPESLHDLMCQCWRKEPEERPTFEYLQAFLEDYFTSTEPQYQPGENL

IC50 [1]: 0.08 µM | IC50 [6]: 0.19 µM | IC50 [2]: 0.006 µM | IC50 [3]: 0.07 µM | IC50 [4]: > 10 µM | IC50 [5]: 4 µM
SMILES: COc1cc(Nc2ncc3c(=O)n(-c4c(C)cccc4C)c4nc5ccccc5n4c3n2)cc(OC)c1OCCCN1CCN(C)CC1

solubility [7]: > 200 µg/mL | IC50 [1]: 0.29 µM | IC50 [6]: 0.61 µM | IC50 [2]: 0.006 µM | IC50 [3]: 0.077 µM | IC50 [4]: > 10 µM | IC50 [5]: 3.3 µM
SMILES: COc1cc(Nc2ncc3c(=O)n(-c4c(C)cccc4C)c4nc5ccccc5n4c3n2)cc(OC)c1OCCN1CCN(C)CC1

solubility [7]: 15 µg/mL (≈ 28.7 µM) | IC50 [1]: 0.47 µM | IC50 [6]: 0.97 µM | IC50 [2]: 0.027 µM | IC50 [3]: 0.21 µM | IC50 [4]: > 10 µM | IC50 [5]: 1.9 µM
SMILES: COc1cc(Nc2ncc3c(=O)n(-c4c(C)cccc4C)c4nc5ccccc5n4c3n2)cc(OC)c1OC

IC50 [4]: 0.463 µM
SMILES: COc1cc(Nc2ncnc(-n3c(Nc4ccccc4)nc4ccccc43)n2)cc(OC)c1OC

Continued, molecule first:

SMILES: CN1CCN(c2ccc(Nc3ncc4c(=O)n(-c5c(Cl)cc(Cl)cc5Cl)c5nc6ccccc6n5c4n3)cc2)CC1
IC50 [1]: 0.14 µM | IC50 [2]: 0.008 µM | IC50 [3]: 0.035 µM | IC50 [4]: > 10 µM | IC50 [5]: 0.48 µM

SMILES: COc1cccc(-n2c(=O)c3cnc(Nc4ccc(N5CCN(C)CC5)cc4)nc3n3c4ccccc4nc23)c1
IC50 [2]: 0.19 µM | IC50 [3]: 1.9 µM | IC50 [5]: 8.3 µM

SMILES: Cc1cccc(C)c1-n1c(=O)c2cnc(Nc3ccc(OCCCN(C)C)cc3)nc2n2c3ccccc3nc12
solubility [7]: 155 µg/mL (≈ 290 µM) | IC50 [1]: 0.1 µM | IC50 [6]: 1.1 µM | IC50 [3]: 0.36 µM | IC50 [4]: > 10 µM | IC50 [5]: 4.2 µM

SMILES: Cc1ccc(-n2c(=O)c3cnc(Nc4ccc(N5CCN(C)CC5)cc4)nc3n3c4ccccc4nc23)cc1
IC50 [2]: 0.35 µM | IC50 [3]: 1.7 µM | IC50 [5]: > 25 µM

SMILES: COc1cc(Nc2ncnc(-n3c(Nc4c(C)cccc4C)nc4ccccc43)n2)cc(OC)c1OC
IC50 [2]: 0.001 µM | IC50 [4]: 0.078 µM | IC50 [5]: 0.004 µM

SMILES: COc1cc(Nc2ncc3c(=O)n(-c4c(C)cccc4C)c4nc5ccccc5n4c3n2)ccc1N1CCN(C)CC1
solubility [7]: > 200 µg/mL | IC50 [1]: 0.051 µM | IC50 [6]: 0.43 µM | IC50 [2]: 0.005 µM | IC50 [3]: 0.1 µM | IC50 [4]: 7.5 µM | IC50 [5]: 3.6 µM
